Measured values: US20100144818A1, “1-BENZYLPYRAZOLE DERIVATIVES, PREPARATION THEREOF AND THERAPEUTIC USE THEREOF” (SANOFI-AVENTIS, priority 2007, published 2010)

Columns and labels:
[1] = Model of passage through the intestinal barrier constituted of Caco-2 cells; format: in vitro ADME; settings: human, concentration=20 μM, apical pH=6.5 and basal pH=7.4, read-out: Ptot, coefficient of apparent permeability for the monolayer of intestinal epithelial cells plus filter
Text: The compounds according to the invention were investigated on a model of passage through the intestinal barrier constituted of Caco-2 cells. (M. C. Grès, Pharm. Res., 1998, 15(5), 726-733). This model makes it possible to define the coefficient Ptot of apparent permeability of the product for the monolayer of intestinal epithelial cells plus filter. As examples, compounds No. 60 (ex. 5) and No. 90 (ex. 7) have, in this model, a Ptot of 111.97 and 64.5 respectively (10^−7 cm·s^−1; concentration=20 μM; apical pH=6.5 and basal pH=7.4). These values are predictive of total absorption in humans, after administration by the oral route.

Papp at 20 μM [1] [×10⁻⁶ cm/s]	melting point [°C]	Compound
11.2		CC(C)(C)C(=O)NCc1cc(-c2ccc(Cl)c(Cl)c2)n(Cc2ccc(Cl)c(Cl)c2)n1 [Compound 60, N-((1-(3,4-Dichlorobenzyl)-5-(3,4-dichlorophenyl)-1H-pyrazol-3-yl)methyl)-2,2-dimethylpropanamide]
	181	Cc1ccc(Cn2nc(CNC(=O)NC(C)(C)C)cc2-c2ccc(Cl)c(Cl)c2)cc1Cl [Compound 81, N-(tert-Butyl)-N′-((1-(3-chloro-4-methylbenzyl)-5-(3,4-dichlorophenyl)-1H-pyrazol-3-yl)methyl)urea]
6.45	127	CC(C)(C)S(=O)(=O)NCc1cc(-c2ccc(Cl)c(Cl)c2)n(Cc2ccc(Cl)c(Cl)c2)n1 [Compound 90, N-((1-(3,4-Dichlorobenzyl)-5-(3,4-dichlorophenyl)-1H-pyrazol-3-yl)methyl)-2-methylpropane-2-sulfonamide]
